Assay results: patent US8846933B2, “N-link hydroxamic acid derivatives useful as antibacterial agents” (Pfizer Inc., priority 2009, dated 2014)

Key:
[1] = system: Pseudomonas aeruginosa UI-18: Wild-type (PA-7); test: MIC determination (CLSI), strain PA-7; format: cell-based; settings: strain PA-7, unit assumed
In short: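 MIC determined by broth dilution per CLSI M7-A7 guidelines with M100-S18 interpretive standards. Test organism: wild-type Pseudomonas aeruginosa UI-18, designated PA-7.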

[2] = system: Escherichia coli EC-1: VOGEL, mouse virulent; test: MIC determination (CLSI), strain EC-1; format: cell-based; settings: strain EC-1, unit assumed
In short: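 The mouse-virulent VOGEL isolate of E. coli, EC-1, served as test organism. Minimum inhibitory concentration was measured by CLSI dilution methodology (M7-A7; M100-S18 standards).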

[3] = generated in the same manner as in Table 4

Compound	PA-7 (MIC) [1] [µg/mL]	EC-1 (MIC) [2] [µg/mL]	PA-7 (MIC) [1, 3] [µg/mL]	EC-1 (MIC) [2, 3] [µg/mL]
CC(CCn1ccc(-c2cc3ccncc3cc2F)cc1=O)(C(=O)NO)S(C)(=O)=O (stereo not shown) [Example 306, 4-[4-(7-fluoroisoquinolin-6-yl)-2-oxopyridin-1(2H)-yl]-N-hydroxy-2-methyl-2-(methylsulfonyl)butanamide]	4	8		
CNS(=O)(=O)c1ccc(-c2ccn(CCC(C)(C(=O)NO)S(C)(=O)=O)c(=O)c2)cc1 (stereo not shown) [Example 102, N-hydroxy-2-methyl-4-[4-{4-[(methylamino)sulfonyl]phenyl}-2-oxopyridin-1(2H)-yl]-2-(methylsulfonyl)butanamide]			> 64	> 64
C[C@@](CCn1ccc(-c2ccc(OCCCC3CCN(C(=O)CO)CC3)cc2)cc1=O)(C(=O)NO)S(C)(=O)=O [Example 313, (2R)-4-[4-{4-[3-(1-glycoloylpiperidin-4-yl)propoxy]phenyl}-2-oxopyridin-1(2H)-yl]-N-hydroxy-2-methyl-2-(methylsulfonyl)butanamide]	4	0.5		
Cc1cnc(-c2ccc(-c3ccn(CC[C@](C)(C(=O)NO)S(C)(=O)=O)c(=O)c3)cc2)nc1 [Example 461]	1	0.125		
C[C@@](CCn1ccc(-c2cccc(OC(F)F)c2)cc1=O)(C(=O)NO)S(C)(=O)=O [Example 480]	4	8		
C[C@@](CCn1ccc(-c2ccc(-c3ccncc3)cc2)cc1=O)(C(=O)NO)S(C)(=O)=O [Example 402, (2R)-N-hydroxy-2-methyl-2-(methylsulfonyl)-4-[2-oxo-4-(4-pyridin-4-ylphenyl)pyridin-1(2H)-yl]butanamide]	2	0.5		
C[C@@](CCn1ccc(-c2ccc(OCC#N)cc2)cc1=O)(C(=O)NO)S(C)(=O)=O [Example 333, (2R)-4-{4-[4-(cyanomethoxy)phenyl]-2-oxopyridin-1(2H)-yl}-N-hydroxy-2-methyl-2-(methylsulfonyl)butanamide]	8	16		
CC(CCn1ccc(-c2ccc(OCCCN3CCCCC3)cc2)cc1=O)(C(=O)NO)S(C)(=O)=O (stereo not shown) [Example 77]			64	64
CC(CCn1ccc(-c2cc(F)cc(Cl)c2)cc1=O)(C(=O)NO)S(C)(=O)=O (stereo not shown) [Example 121, 4-[4-(3-chloro-5-fluorophenyl)-2-oxopyridin-1(2H)-yl]-N-hydroxy-2-methyl-2-(methylsulfonyl)butanamide]			16	8
CC(CCn1ccc(-c2ccc(OCCCN3CCS(=O)(=O)CC3)cc2)cc1=O)(C(=O)NO)S(C)(=O)=O (stereo not shown) [Example 82, 4-[4-{4-[3-(1,1-dioxidothiomorpholin-4-yl)propoxy]phenyl}-2-oxopyridin-1(2H)-yl]-N-hydroxy-2-methyl-2-(methylsulfonyl)butanamide]			32	8
CC(CCn1ccc(-c2ccc(-c3ccccc3)c(F)c2)cc1=O)(C(=O)NO)S(C)(=O)=O (stereo not shown) [Example 197, 4-[4-(2-fluorobiphenyl-4-yl)-2-oxopyridin-1(2H)-yl]-N-hydroxy-2-methyl-2-(methylsulfonyl)butanamide]	2	0.25		
C[C@@](CCn1ccc(-c2ccc(Oc3ncccn3)cc2)cc1=O)(C(=O)NO)S(C)(=O)=O [Example 424, (2R)-N-hydroxy-2-methyl-2-(methylsulfonyl)-4-{2-oxo-4-[4-(pyrimidin-2-yloxy)phenyl]pyridin-1(2H)-yl}butanamide]	4	4		
CC(C)(CO)c1ccc(-c2ccn(CC[C@](C)(C(=O)NO)S(C)(=O)=O)c(=O)c2)cc1 [Example 350, (2R)-N-hydroxy-4-{4-[4-(2-hydroxy-1,1-dimethylethyl)phenyl]-2-oxopyridin-1(2H)-yl}-2-methyl-2-(methylsulfonyl)butanamide]	16	16		
Cc1c(F)cccc1-c1ccn(CCC(C)(C(=O)NO)S(C)(=O)=O)c(=O)c1 (stereo not shown) [Example 153, 4-[4-(3-fluoro-2-methylphenyl)-2-oxopyridin-1(2H)-yl]-N-hydroxy-2-methyl-2-(methylsulfonyl)butanamide]			8	32
Cn1c(C#N)ccc1-c1ccn(CCC(C)(C(=O)NO)S(C)(=O)=O)c(=O)c1 (stereo not shown) [Example 194, 4-[4-(5-cyano-1-methyl-1H-pyrrol-2-yl)-2-oxopyridin-1(2H)-yl]-N-hydroxy-2-methyl-2-(methylsulfonyl)butanamide]	> 64	> 64		
CC(CCn1ccc(-c2ccc(OCc3ccccn3)cc2)cc1=O)(C(=O)NO)S(C)(=O)=O (stereo not shown) [Example 270, N-hydroxy-2-methyl-2-(methylsulfonyl)-4-{2-oxo-4-[4-(pyridin-2-ylmethoxy)phenyl]pyridin-1(2H)-yl}butanamide]	2	1		

Compound	PA-7 (MIC) [1] [µg/mL]	EC-1 (MIC) [2] [µg/mL]	PA-7 (MIC) [1, 3] [µg/mL]	EC-1 (MIC) [2, 3] [µg/mL]
CC(CCn1ccc(-c2ccc(OCc3cccnc3)cc2)cc1=O)(C(=O)NO)S(C)(=O)=O (stereo not shown) [Example 269, N-hydroxy-2-methyl-2-(methylsulfonyl)-4-{2-oxo-4-[4-(pyridin-3-ylmethoxy)phenyl]pyridin-1(2H)-yl}butanamide]	2	0.5		
C[C@@](CCn1ccc(-c2ccc(Oc3ccnc4ccccc34)cc2)cc1=O)(C(=O)NO)S(C)(=O)=O [Example 444]	2	0.125		
C[C@@](CCn1ccc(-c2ccc(Cl)cc2Cl)cc1=O)(C(=O)NO)S(C)(=O)=O [Example 386]	2	2		
CC(CCn1ccc(-c2ccc(-c3cccnc3)cc2F)cc1=O)(C(=O)NO)S(C)(=O)=O (stereo not shown) [Example 295, 4-[4-(2-fluoro-4-pyridin-3-ylphenyl)-2-oxopyridin-1(2H)-yl]-N-hydroxy-2-methyl-2-(methylsulfonyl)butanamide]	8	1		
COc1cc(-c2ccn(CCC(C)(C(=O)NO)S(C)(=O)=O)c(=O)c2)ccc1OCCCN1CCOCC1 (stereo not shown) [Example 227, N-hydroxy-4-{4-[3-methoxy-4-(3-morpholin-4-ylpropoxy)phenyl]-2-oxopyridin-1(2H)-yl}-2-methyl-2-(methylsulfonyl)butanamide]	64	64		
C[C@@](CCn1ccc(-c2ccc(-n3cncn3)cc2)cc1=O)(C(=O)NO)S(C)(=O)=O [Example 371, (2R)-N-hydroxy-2-methyl-2-(methylsulfonyl)-4-{2-oxo-4-[4-(1H-1,2,4-triazol-1-yl)phenyl]pyridin-1(2H)-yl}butanamide]	8	32		
CC(=O)Nc1cccc(-c2ccn(CCC(C)(C(=O)NO)S(C)(=O)=O)c(=O)c2)c1 (stereo not shown) [Example 133, 4-[4-(3-acetamidophenyl)-2-oxopyridin-1(2H)-yl]-N-hydroxy-2-methyl-2-(methylsulfonyl)butanamide]			> 64	> 64
CC(CCn1ccc(-c2ccccc2OCC(F)(F)F)cc1=O)(C(=O)NO)S(C)(=O)=O (stereo not shown) [Example 131, N-hydroxy-2-methyl-2-(methylsulfonyl)-4-{2-oxo-4-[2-(2,2,2-trifluoroethoxy)phenyl]pyridin-1(2H)-yl}butanamide]			> 64	> 64
C[C@@](CCn1ccc(-c2ccc(Oc3nccc4occc34)cc2)cc1=O)(C(=O)NO)S(C)(=O)=O [Example 437, (2R)-4-{4-[4-(furo[3,2-c]pyridin-4-yloxy)phenyl]-2-oxopyridin-1(2H)-yl}-N-hydroxy-2-methyl-2-(methylsulfonyl)butanamide]	4	0.25		
CC(CCn1ccc(-c2ccc(OCCCCO)c(F)c2)cc1=O)(C(=O)NO)S(C)(=O)=O (stereo not shown) [Example 240, 4-{4-[3-fluoro-4-(4-hydroxybutoxy)phenyl]-2-oxopyridin-1(2H)-yl}-N-hydroxy-2-methyl-2-(methylsulfonyl)butanamide]	4	1		
CCNC(=O)c1cc(F)cc(-c2ccn(CCC(C)(C(=O)NO)S(C)(=O)=O)c(=O)c2)c1 (stereo not shown) [Example 103, N-ethyl-3-fluoro-5-{1-[4-(hydroxyamino)-3-methyl-3-(methylsulfonyl)-4-oxobutyl]-2-oxo-1,2-dihydropyridin-4-yl}benzamide]			> 64	> 64
Cc1nnn(-c2ccc(-c3ccn(CC[C@](C)(C(=O)NO)S(C)(=O)=O)c(=O)c3)cc2)n1 [Example 379, (2R)-N-hydroxy-2-methyl-2-(methylsulfonyl)-4-{4-[4-(5-methyl-2H-tetrazol-2-yl)phenyl]-2-oxopyridin-1(2H)-yl}butanamide]	2	0.5		
CC(CCn1ccc(-c2ccc(Cl)c(C#N)c2)cc1=O)(C(=O)NO)S(C)(=O)=O (stereo not shown) [Example 135, 4-[4-(4-chloro-3-cyanophenyl)-2-oxopyridin-1(2H)-yl]-N-hydroxy-2-methyl-2-(methylsulfonyl)butanamide]			16	16
C[C@@](CCn1ccc(-c2ccc(OC(F)(F)F)cc2)cc1=O)(C(=O)NO)S(C)(=O)=O [Example 391, (2R)-N-hydroxy-2-methyl-2-(methylsulfonyl)-4-{2-oxo-4-[4-(trifluoromethoxy)phenyl]pyridin-1(2H)-yl}butanamide]	0.5	0.25		
CC(CCn1ccc(-c2ccc(OCCCO)c(Cl)c2)cc1=O)(C(=O)NO)S(C)(=O)=O (stereo not shown) [Example 246, 4-{4-[3-chloro-4-(3-hydroxypropoxy)phenyl]-2-oxopyridin-1(2H)-yl}-N-hydroxy-2-methyl-2-(methylsulfonyl)butanamide]	4	2		
CC(CCn1ccc(-c2ccc(OCCCCCO)cc2)cc1=O)(C(=O)NO)S(C)(=O)=O (stereo not shown) [Example 229, N-hydroxy-4-[4-{4-[(5-hydroxypentyl)oxy]phenyl}-2-oxopyridin-1(2H)-yl]-2-methyl-2-(methylsulfonyl)butanamide]	2	0.25		
